Test results taken from patent US9649297B2, “Treatment of ADHD” (Gosforth Centre (Holdings) Pty Ltd., priority 2007, dated 2017).
Where a name gives a salt, the structure may show the parent alone.

Experiments:
[1] = system: epileptics and individuals with bipolar disorders; conditions: per day; usual minimum anti-convulsant dose; cited from earlier work
[2] = system: patients who had symptoms of ADHD; assay: Clinical study with anti-epileptic mood stabilisers alone in patients with symptoms of ADHD (Example 3); assay type: in vivo, human; conditions: for patient-reported improvements (self and other rating scales, clinical assessments): monotherapy without stimulant, topiramate 12.5-50 mg/day, Phenytoin 30-60 mg/day, valproate same dose range as combined treatment
Text: The improvements assessed using self and other rating scales objective psychometric tool together with repeated clinical assessments.

ADHD patients = system: ADHD patients
Protocol: A. Topiramate in Combination with Dexamphetamine (n=11)
The third trial clinical has been with phenytoin and a psychostimulant (n=8). Phenytoin is less often used for its psychoactive properties than either valproate or topiramate. […] The assessment methods were as per the trials with valproate and topiramate.
C. Phenytoin in Combination with Dexamphetamine (n=6)
E. Sodium Valproate in Combination with Methylphenidate (n=4) • Sodium Valproate: average 1.6 mg/kg/day (130 mg/day) • Methylphenidate: average 1.2 mg/kg/day (84 mg/day)

[3] = system: patients with a diagnosis of GAD; assay: Treatment of Generalised Anxiety Disorder (GAD) with low dose AED (Example 5); assay type: in vivo, human; conditions: 50 to 150 mg, without co-administration of a stimulant
Protocol: The diagnostic criteria cited for inclusion in this study included reference to excessive anxiety and worry which had been present for at least 6 months and which was difficult to control and associated with difficulty concentrating, becoming easily fatigued, restlessness or feeling keyed up or on edge and sleep disturbance. […] The medication was well tolerated with few side effects at the dose given. The improvement was evaluated using self and observer rating scales together with clinician review. As in the ADHD trials response usually commenced within 3-7 days. Due to the robust and persistent benefit, six months at the time of writing, many of the other psychotropic medications were reduced or even ceased.

adults with ADHD = system: adults with ADHD
Protocol: The initial dosages used were from 15 to 70 mg/day of dexamphetamine and from 100 to 700 mg/day of VPA (Epilim) (=approximately 2 to 10 mg/kg/day).
The determination of the dose for the dexamphetamine was undertaken in a clinical sensitive open label manner. The dose was titrated upwards dependent on the clinical response and the freedom from side-effects. The dose range was between 15 and 70 mg a day. The frequency of the dosing also varied dependent upon the clinical response. The usual dose interval was between two to four hours. This dosing adjustment took place prior to the commencement of the sodium valproate. The sodium valproate medication was initiated once a day at 50 mg tablet or elixir and titrated upwards dependent on response, but not more than one increase every three days. The dose was given as a once or twice a day regime. During the titration phase, if clinically possible, no other adjustments to the pharmacotherapy were undertaken.
The dosages of sodium valproate, after adjustment, varied between 50 mg/day, 100 mg/day, 150 mg/day or 200 mg/day (number of patients—120), with the majority of patients receiving between 50 to 150 mg/day with […] usually the maximum.
The results were assessed using the Conners Adult ADHD Rating scales completed by the patient and observer (usually partner or parent). In a sample of 26 patients who completed self CAARS rating scales at; pre treatment, stable on stimulant and stable on anti-epileptic drug (AED).

[4] = low dose sodium valproate with dexamphetamine

Compound | Minimum Dose/day effective for mood stabilisation [1] | also measured
CCC1(c2ccccc2)C(=O)NC(=O)NC1=O.CNC(C)CC1CCCCC1 [Barbexaclone] | 200 mg in divided doses | 
NC(=O)N1c2ccccc2C=Cc2ccccc21 [Carbamazepine, (Z)-5H-dibenzo[b,f]azepine-5-carboxamide] | 400 mg | 
CN1C(=O)CC(=O)N(c2ccccc2)c2cc(Cl)ccc21 [Clobazam] | 5 mg/kg daily | 
O=C1CN=C(c2ccccc2Cl)c2cc([N+](=O)[O-])ccc2N1 [Clonazepam] | 1 mg | 
CCN1C(=O)OC(C)(C)C1=O [Ethadione] | 1000 mg | 
CCC1(C)CC(=O)NC1=O (centres unmarked) [Ethosuximide] | 1000 mg | 
CCN1C(=O)NC(c2ccccc2)C1=O (centres unmarked) [Ethotoin, 3-ethyl-5-phenyl-imidazolidine-2,4-dione] | 1000 mg | 
NC(=O)OCC(COC(N)=O)c1ccccc1 [Felbamate] | 1200 mg | 
O=C1NC(c2ccccc2)(c2ccccc2)C(=O)N1COP(=O)(O)O [Fosphenytoin Sodium] | 10 mg/kg | 
NCC1(CC(=O)O)CCCCC1 [Gabapentin, 2-[1-(aminomethyl)cyclohexyl]acetic acid] | 900 mg | 
Nc1nnc(-c2cccc(Cl)c2Cl)c(N)n1 [Lamotrigine] | 100 mg | 
CC[C@@H](C(N)=O)N1CCCC1=O [Levetiracetam] | 1000 mg | 
COC1=CC(=O)OC1C(O)c1ccccc1Cl (centres unmarked) [Losigamone] | 1500 mg | 
CCC1(c2ccccc2)NC(=O)N(C)C1=O (centres unmarked) [Mephenytoin] | 200 mg | 
NC(=O)N1c2ccccc2CC(=O)c2ccccc21 [Oxcarbazepine, 10,11-Dihydro-10-oxo-5H-dibenz[b,f]azepine-5-carboxamide] | 600 mg | 
CCC(C(=O)NC(N)=O)c1ccccc1 (centres unmarked) [Pheneturide] | 600 mg | 
O=C1NC(=O)C(c2ccccc2)(c2ccccc2)N1 [Phenytoin, 5,5-diphenylimidazolidine-2,4-dione] | 200 mg | patient-reported improvements (self and other rating scales, clinical assessments) [2]: improvements in the organisation of thoughts in conversation and reading comprehension; overall effect and tolerability (ADHD patients; phenytoin at low dose with a psychostimulant, n=8): robust and well tolerated effect in eight patients
CC(C)C[C@H](CN)CC(=O)O [Pregabalin, (S)-3-(aminomethyl)-5-methylhexanoic acid] | 300 mg | 
CCC1(c2ccccc2)C(=O)NCNC1=O [Primidone] | 750 mg | 
NC(=O)c1cn(Cc2c(F)cccc2F)nn1 [Rufinamide] | 400 mg | 
NS(=O)(=O)c1ccc(N2CCCCS2(=O)=O)cc1 [Sultiame] | 200 mg | 
Cc1ccsc1C(=CCCN1CCC[C@H](C(=O)O)C1)c1sccc1C [Tiagabine Hydrochloride, (3S)-1-[4,4-bis(3-methylthiophen-2-yl)but-3-enyl]piperidine-3-carboxylic acid] | 30 mg | 
CC1(C)O[C@@H]2[C@@H](CO[C@@]3(COS(N)(=O)=O)OC(C)(C)O[C@@H]23)O1 [Topiramate, 2,3:4,5-Bis-O-(1-methylethylidene)-beta-D-fructopyranose sulfamate] | 100 mg | patient-reported improvements (self and other rating scales, clinical assessments) [2]: improvements in the organisation of thoughts in conversation and reading comprehension; effect on coordination, organisation and motivation ([2]; topiramate alone 12.5-50 mg/day): effect on coordination, as well as improved organisation and motivation; tolerability at initial titration (ADHD patients; 25 mg increasing to 125 mg daily, with stimulant): intolerable side effects and ceasing of medication; Conners' Adult ADHD Rating scales (self and observer), DEM, clinician interview (ADHD patients; re-titration commencing at 6.25 or 12.5 mg, with stimulant): significant improvements
C=CC(N)CCC(=O)O (centres unmarked) [Vigabatrin] | 1000 mg | 
NS(=O)(=O)Cc1noc2ccccc12 [Zonisamide] | 200 mg | 
CCCC(CCC)C(=O)O.[Na] [sodium valproate, sodium di-n-propylacetic acid] |  | patient-reported improvements (self and other rating scales, clinical assessments) [2]: improvements in the organisation of thoughts in conversation and reading comprehension; function and symptoms in Generalised Anxiety Disorder [3]: sustained improvement in function and a reduction in symptoms; psychosocial functioning (patient description, clinical review) (adults with ADHD; VPA added to dexamphetamine, dose below that for bipolar disorder): overall improvement in psychosocial functioning; adverse effect at higher dosages (adults with ADHD; in vivo): general cognitive and a resultant loss of efficacy; adverse effect at higher doses (adults with ADHD; in vivo): general cognitive slowing and the resultant loss of efficacy; oculomotor function, Developmental Eye Movement Test (DEM) (adults with ADHD; [4]): has shown improvement; reading and verbal comprehension abilities (patient report) (adults with ADHD; [4]): improvement in their reading and verbal comprehension abilities
